Reference: patent publication US11766430B2, “Methods of using a phenoxypropylamine compound to treat pain” (Minerva Neurosciences, Inc., priority 2018, dated 2023)
Values joined by “and” are separate entries in the source; they are usually repeats but may differ in a detail not shown here. Identical values can stand only once.

Tested on: carrageenan-induced mechanical hyperalgesia in rats
Test: Carrageenan-induced mechanical hyperalgesia, paw pressure test, MIN-117 1-10 mg/kg (Example 4)
Type: in vivo, male Sprague-Dawley rats
Conditions: Carrageenan 2%; for Nociceptive threshold, control paw (mean ± s.e.m.): T0 (3 h after carrageenan, before dosing); for paw withdrawal threshold, control paw, Mean: n = 10
Experimental: In this model, inflammation is induced by intraplantar injection of carrageenan (2%) into the right hindpaw of the rat. Three hours later, reaction thresholds are measured using the paw pressure test. Pressure is gradually applied to both hind paws (inflamed and control) of the rat, and reaction thresholds are determined as the pressure (g) required to elicit paw withdrawal or vocalization. Morphine (3 mg/kg, s.c.), used as positive control.
The experiments in this study used fifty (50) male Sprague-Dawley rats (SPF status, Janvier, France), each weighing 183-244 g during the experimental phase. The rats were housed in a temperature (20-24° C.) and relative humidity (45%-65%) controlled room and acclimated to an artificial day/night cycle of 12 hours light (6.30 a.m. to 6.30 p.m.)/12 hours darkness. Rats had free access to sterilized tap water and were fed ad libitum with pelleted complete diet (reference A04, S.A.F.E.). Animals were housed 4 per cage (cages Type E) and were acclimated for a period of at least 5 days before any testing. Each rat was identified by tail markings. Based on the SPF status of the animal facilities, there is no reason to expect that contaminants were present in the food, water or bedding, at levels capable of interfering with the results of the tests.
Static mechanical hyperalgesia was assessed using the Paw Pressure test or Randall & Selitto test (Randall, L. O. and Selitto, J. J., A method for measurement of analgesic activity on inflamed tissue, Arch Int Pharmacodyn, 1957(111): 409-419). This test requires the application of an increasing pressure on the hind paws between a flat surface and a blunt pointer. This test is usually used with animals with one hind paw inflamed by an injection or injured by ligation, and one normal hind paw, to evaluate drugs for analgesic action. The apparatus exerts a steadily increasing force and reaction threshold is determined as the pressure (g) required to elicit paw withdrawal and/or vocalization. In the experiment, animals were gently handled by the experimenter and static mechanical hyperalgesia was assessed. Each reaction threshold measurement was done for both hind paws.
Five (5) experimental groups of 10 rats each were used. Each group was first injected with 100 μL of a 2% carrageenan suspension was injected into the plantar aspect of the right hindpaw. Three hours after carrageenan injection, nociceptive reaction thresholds (vocalization or paw withdrawal) were measured in order to select animals meeting the inclusion criteria: 20 g<paw withdrawal threshold<240 g (baseline). The 5 groups were then administered the following: • Group 1: vehicle (0.5% HPMC), i.p., solution (negative control); • Group 2: MIN-117 (1 mg/kg, i.p.) in 0.5% HPMC, suspension; • Group 3: MIN-117 (3 mg/kg, i.p.) in 0.5% HPMC, suspension; • Group 4: MIN-117 (10 mg/kg, i.p.) in 0.5% HPMC, suspension; and • Group 5: morphine (3 mg/kg, s.c.) in 0.9% NaCl, solution (positive control).
Thirty minutes after morphine injection, the antihyperalgesic effect of morphine was evaluated using the paw pressure test. For vehicle and MIN-117 administration, the antihyperalgesic effect was evaluated after 120 min. using the paw pressure test.
Vehicle and MIN-117 were intraperitoneally administered at 10 mL/kg. Morphine was subcutaneously administered at 5 mL/kg. Dosing and testing were performed in a random order by a blinded experimenter except for the morphine-treated group. Doses were expressed in terms of free active substance.
Results were expressed as: • The paw withdrawal threshold (mean±s.e.m.) in grams of contact pressure for each group, calculated from individual paw withdrawal thresholds • The percentage of variation of the paw withdrawal threshold calculated from the mean value of the vehicle-treated group • The percentage of activity of activity of the compound on carrageenan-induced mechanical hyperalgesia, calculated as follows: […]

[1] = 1 mg/kg i.p., T0 (before dosing)
[2] = 3 mg/kg i.p., T0 (before dosing)
[3] = 10 mg/kg i.p., T0 (before dosing)
[4] = MIN-117 1 mg/kg i.p. group, Baseline (before dosing)
[5] = MIN-117 1 mg/kg i.p., 120 min after treatment, hydrochloride, 1 mg/kg
[6] = MIN-117 3 mg/kg i.p. group, Baseline (before dosing)
[7] = MIN-117 3 mg/kg i.p., 120 min after treatment, hydrochloride, 3 mg/kg
[8] = MIN-117 10 mg/kg i.p. group, Baseline (before dosing)
[9] = MIN-117 10 mg/kg i.p., 120 min after treatment, hydrochloride, 10 mg/kg
[10] = 3 mg/kg s.c., T0 (before dosing)
[11] = 3 mg/kg s.c., T0 + 30 min, 3 mg/kg
[12] = 3 mg/kg s.c., T0 + 30 min, listed as morphine, 3 mg/kg
[13] = Morphine 3 mg/kg s.c. group, Baseline (before dosing)
[14] = Morphine 3 mg/kg s.c., 30 min after treatment

## Cc1nnc(-c2cc3c(OC[C@@H](O)CN4CCC(c5ccc(Cl)c(Cl)c5)CC4)cccc3o2)o1.Cl [MIN-117, (2S)-1-(4-(3,4-dichlorophenyl)piperidin-1-yl)-3-((2-(5-methyl-1,3,4-oxadiazol-2-yl)benzofuran-4-yl)oxy)propan-2-ol hydrochloride]
1 mg/kg i.p., 120 min. after treatment
  Effect on nociceptive threshold vs vehicle-treated group (in words): did not induce any significant increase
1 mg/kg i.p.
  Nociceptive threshold, control paw (mean ± s.e.m.): 402 ± 19.9 g
[1]
  % variation vs control paw, injured paw: −50%
  % variation vs vehicle-treated group, injured paw: 1%
  Nociceptive threshold, injured paw (mean ± s.e.m.): 202 ± 8.7 g
1 mg/kg i.p., T0 + 120 min
  % variation vs control paw, injured paw: −39%
  % variation vs pre-drug threshold, injured paw: 14%
  % variation vs vehicle-treated group, injured paw: 13%
  Nociceptive threshold, injured paw (mean ± s.e.m.): 230 ± 9.5 g
3 mg/kg i.p., 120 min. later
  Effect on nociceptive threshold vs vehicle-treated group (in words): significant increase
3 mg/kg i.p.
  Nociceptive threshold, control paw (mean ± s.e.m.): 392 ± 18.4 g
[2]
  % variation vs control paw, injured paw: −47%
  % variation vs vehicle-treated group, injured paw: 4%
  Nociceptive threshold, injured paw (mean ± s.e.m.): 208 ± 7.4 g
3 mg/kg i.p., T0 + 120 min
  % variation vs control paw, injured paw: −23%
  % variation vs pre-drug threshold, injured paw: 42%
  % variation vs vehicle-treated group, injured paw: 45%
3 mg/kg i.p., T0 + 120 min, hydrochloride, 3 mg/kg
  Nociceptive threshold, injured paw (mean ± s.e.m.): 296 ± 20.8 g
10 mg/kg i.p., 120 min. later
  Effect on nociceptive threshold vs vehicle-treated group (in words): significant increase
10 mg/kg i.p.
  Nociceptive threshold, control paw (mean ± s.e.m.): 384 ± 10.2 g
[3]
  % variation vs control paw, injured paw: −47%
  % variation vs vehicle-treated group, injured paw: 2%
  Nociceptive threshold, injured paw (mean ± s.e.m.): 204 ± 6.5 g
10 mg/kg i.p., T0 + 120 min
  % variation vs control paw, injured paw: −27%
  % variation vs pre-drug threshold, injured paw: 53%
  % variation vs vehicle-treated group, injured paw: 53%
10 mg/kg i.p., T0 + 120 min, hydrochloride, 10 mg/kg
  Nociceptive threshold, injured paw (mean ± s.e.m.): 312 ± 22.7 g
[4]
  % variation vs control paw, injured paw: −50%
  % variation vs vehicle treated group, injured paw: 1%
MIN-117 1 mg/kg i.p. group, Baseline (before dosing, 3 h after carrageenan)
  paw withdrawal threshold, control paw, Mean: 402 g
MIN-117 1 mg/kg i.p., 120 min
  % activity on carrageenan-induced mechanical hyperalgesia, injured paw: 15%
  % variation vs control paw, injured paw: −39%
  % variation vs pre-drug threshold, injured paw: 14%
  % variation vs vehicle treated group, injured paw: 13%
[5]
  paw withdrawal threshold, control paw, individual rats: 400 g and 440 g and 340 g and 480 g and 360 g (4×) and 380 g and 320 g
  paw withdrawal threshold, injured paw, individual rats: 260 g (4×) and 220 g (2×) and 240 g and 200 g (2×) and 180 g
MIN-117 1 mg/kg i.p., 120 min after treatment
  paw withdrawal threshold, control paw, Mean: 380 g
[6]
  % variation vs control paw, injured paw: −47%
  % variation vs vehicle treated group, injured paw: 4%
MIN-117 3 mg/kg i.p. group, Baseline (before dosing, 3 h after carrageenan)
  paw withdrawal threshold, control paw, Mean: 392 g
MIN-117 3 mg/kg i.p., 120 min
  % activity on carrageenan-induced mechanical hyperalgesia, injured paw: 55%
  % variation vs control paw, injured paw: −23%
  % variation vs pre-drug threshold, injured paw: 42%
  % variation vs vehicle treated group, injured paw: 45%
[7]
  paw withdrawal threshold, control paw, individual rats: 380 g and 360 g (5×) and 440 g and 500 g and 320 g and 420 g
  paw withdrawal threshold, injured paw, individual rats: 360 g and 220 g and 420 g and 280 g (3×) and 340 g and 320 g and 260 g and 200 g
MIN-117 3 mg/kg i.p., 120 min after treatment
  paw withdrawal threshold, control paw, Mean: 368 g
[8]
  % variation vs control paw, injured paw: −47%
  % variation vs vehicle treated group, injured paw: 2%
MIN-117 10 mg/kg i.p. group, Baseline (before dosing, 3 h after carrageenan)
  paw withdrawal threshold, control paw, Mean: 384 g
MIN-117 10 mg/kg i.p., 120 min
  % activity on carrageenan-induced mechanical hyperalgesia, injured paw: 64%
  % variation vs control paw, injured paw: −27%
  % variation vs pre-drug threshold, injured paw: 53%
  % variation vs vehicle treated group, injured paw: 53%
[9]
  paw withdrawal threshold, control paw, individual rats: 440 g (3×) and 480 g and 520 g and 400 g and 340 g and 320 g and 360 g and 540 g
  paw withdrawal threshold, injured paw, individual rats: 320 g (2×) and 280 g (2×) and 340 g and 360 g and 480 g and 260 g and 240 g (2×)
MIN-117 10 mg/kg i.p., 120 min after treatment
  paw withdrawal threshold, control paw, Mean: 428 g

## CN1CC[C@]23c4c5ccc(O)c4O[C@H]2[C@@H](O)C=C[C@H]3[C@H]1C5 [Morphine, reference compound]
3 mg/kg s.c., 30 min. after the injection
  Effect on nociceptive threshold vs baseline pre-treatment (in words): marked and significant increase
3 mg/kg s.c.
  Nociceptive threshold, control paw (mean ± s.e.m.): 376 ± 14.5 g
[10]
  % variation vs control paw, injured paw: −47%
  % variation vs vehicle-treated group, injured paw: 0%
3 mg/kg s.c., T0 (before dosing), 3 mg/kg
  Nociceptive threshold, injured paw (mean ± s.e.m.): 200 ± 6.7 g
3 mg/kg s.c., T0 (before dosing), listed as morphine, 3 mg/kg
  Nociceptive threshold, injured paw (mean ± s.e.m.): 200 ± 6.7 g
3 mg/kg s.c., T0 + 30 min
  % variation vs control paw, injured paw: −17%
  % variation vs pre-drug threshold, injured paw: 162%
[11]
  % activity, injured paw: 190%
  Nociceptive threshold, injured paw (mean ± s.e.m.): 524 ± 35.6 g
[12]
  % activity, injured paw: +190%
  Nociceptive threshold, injured paw (mean ± s.e.m.): 524 ± 35.6 g
[13]
  % variation vs control paw, injured paw: −47%
  % variation vs vehicle treated group, injured paw: 0%
Morphine 3 mg/kg s.c. group, Baseline (before dosing, 3 h after carrageenan)
  paw withdrawal threshold, control paw, Mean: 376 g
Morphine 3 mg/kg s.c., 30 min
  % activity on carrageenan-induced mechanical hyperalgesia, injured paw: 190%
  % variation vs control paw, injured paw: −17%
  % variation vs pre-drug threshold, injured paw: 162%
[14]
  paw withdrawal threshold, control paw, individual rats: 680 g (4×) and 640 g (2×) and 600 g and 620 g and 560 g and 520 g
  paw withdrawal threshold, injured paw, individual rats: 680 g and 600 g (2×) and 500 g and 640 g and 320 g and 400 g and 540 g and 440 g and 520 g
  paw withdrawal threshold, control paw, Mean: 630 g
